Results as given in patent US10420772B2, “Animal and human anti-trypanosomonal and anti-leishmania agents” (Celgene Corporation, priority 2016, dated 2019).

What was measured:
Type in all cases: cell-based
[1] = test system: STIB 806 K T. evansi (drug sensitive) strain; test: In vitro Alamar Blue 72 hrs drug sensitivity assay for T. evansi; details: STIB 806 K T. evansi bloodstream form, Alamar Blue, 72 hrs; read-out: T. evansi Act.
Description: In vitro Alamar Blue 72 hrs drug sensitivity assay for T. evansi. Compounds were tested in vitro for chemotherapeutic efficacy against the STIB 806 K T. evansi (drug sensitive) strain, using an Alamar Blue assay. Test compounds were prepared as 10 mg/mL DMSO stocks for each assay run. Compounds were assayed in at least three separate, independent test runs and an 11-point dilution curve was used to determine the IC50 values. Bloodstream form trypanosomes were incubated with test compounds for 69 hrs at 37° C. in a humidified atmosphere containing 5% CO2, supported in HMI media containing 15% horse serum. Thereafter, 10 μL of Resazurin dye (12.5 mg in 100 mL of phosphate buffered saline, Sigma-Aldrich, Buchs, Switzerland) were added for an additional 3 hrs. Plates were then read using a fluorescent plate reader (Spectramax, Gemini XS, Bucher Biotec, Basel, Switzerland) using an excitation wavelength of 536 nm and an emission wavelength of 588 nm. Data points were averaged to generate sigmoidal dose-response curves and IC50 values were determined using Softmax Pro 5.2 software.

[2] = test system: STIB 719/ILRAD 560 T. vivax (drug sensitive) strain; test: Ex vivo Alamar Blue 48 hrs drug sensitivity assay for T. vivax; details: Trypanosoma vivax, STIB719; STIB 719/ILRAD 560 T. vivax bloodstream form, ex vivo, Alamar Blue, 48 hrs; read-out: T. vivax Act.
Summary of the method: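 Bloodstream-form trypanosomes taken from a parasitaemic mouse were exposed to compound for 45 h at 37°C, 5% CO2 in HMI medium with 20% bovine serum. Resazurin added for a further 3 h, fluorescence read at ex 536/em 588 nm. IC50 from 11-point sigmoidal curves, at least three independent runs.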

[3] = test system: IL3000 T. congolense (drug sensitive) strain; test: In vitro Alamar Blue 72 hrs drug sensitivity assay for T. congolense; details: Trypanosoma congolense, IL3000 T. congolense bloodstream form, read-out: T. congo Act.
Summary of the method: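 Bloodstream-form IL3000 trypanosomes in HMI medium with 20% bovine serum were exposed to compound for 69 hrs at 34° C, 5% CO2. Resazurin was then added for 3 hrs and fluorescence read (ex 536/em 588 nm). IC50 came from 11-point sigmoidal curves over at least three independent runs.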

Measured: IC50

CC1(Nc2ncc3nc(Nc4cccc(Cl)c4)n(C4CCC(CN)CC4)c3n2)CCOCC1 (stereo not drawn) [A-1, 9-((1s,4s)-4-(aminomethyl)cyclohexyl)-N8-(3-chlorophenyl)-N2-(4-methyltetrahydro-2H-pyran-4-yl)-9H-purine-2,8-diamine]
< 150 nM: all assays above

CC1(Nc2ncc3nc(Nc4cccc(C(F)(F)F)c4)n([C@H]4CC[C@@H](CN)CC4)c3n2)CCOCC1 [A-28, 9-((1s,4s)-4-(aminomethyl)cyclohexyl)-N2-(4-methyltetrahydro-2H-pyran-4-yl)-N8-(3-(trifluoromethyl)phenyl)-9H-purine-2,8-diamine]
< 150 nM: all assays above

CC1(Nc2ncc3nc(Nc4cccc(Cl)c4)n([C@H]4CC[C@@H](CN5CCCCC5)CC4)c3n2)CCOCC1 [A-40, N8-(3-chlorophenyl)-N2-(4-methyltetrahydro-2H-pyran-4-yl)-9-((1s,4s)-4-(piperidin-1-ylmethyl)cyclohexyl)-9H-purine-2,8-diamine]
< 150 nM: all assays above

CC1(Nc2ncc3nc(Nc4ccnc(C(F)(F)F)c4)n([C@H]4CC[C@@H](CN)CC4)c3n2)CCOCC1 [A-34, 9-((1s,4s)-4-(aminomethyl)cyclohexyl)-N2-(4-methyltetrahydro-2H-pyran-4-yl)-N8-(2-(trifluoromethyl)pyridin-4-yl)-9H-purine-2,8-diamine]
< 150 nM: all assays above

CC1(Nc2ncc3nc(Nc4cc(F)cc(F)c4)n([C@H]4CC[C@@H](CN)CC4)c3n2)CCOCC1 [A-44, 9-((1s,4s)-4-(aminomethyl)cyclohexyl)-N8-(3,5-difluorophenyl)-N2-(4-methyltetrahydro-2H-pyran-4-yl)-9H-purine-2,8-diamine]
< 150 nM: all assays above

CC1(Nc2ncc3nc(Nc4cccc(Cl)c4F)n([C@H]4CC[C@@H](CN)CC4)c3n2)CCOCC1 [A-49, 9-((1s,4s)-4-(aminomethyl)cyclohexyl)-N8-(3-chloro-2-fluorophenyl)-N2-(4-methyltetrahydro-2H-pyran-4-yl)-9H-purine-2,8-diamine]
< 150 nM: all assays above

CN(C)C[C@H]1CC[C@@H](n2c(Nc3cccc(Cl)c3)nc3cnc(NC4(C)CCOCC4)nc32)CC1 [A-5, N8-(3-chlorophenyl)-9-((1s,4s)-4-((dimethylamino)methyl)cyclohexyl)-N2-(4-methyltetrahydro-2H-pyran-4-yl)-9H-purine-2,8-diamine]
< 150 nM: all assays above
